Common to all, as to assay: Free Choice Kinase Assay Projects, Flashplate
The target in one experiment is AKT1 (human) (UniProt P31749). To be noted: compound 10.0 µM; ATP 3 µM.
For the next experiment, the target named is AURKA (human) (UniProt O14965). To be noted: compound 10.0 µM; ATP 10 µM.
A further experiment addresses AURKB (human) (UniProt Q96GD4). To be noted: compound 10.0 µM; ATP 10 µM.
In another experiment the target is AXL (human) (UniProt P30530). To be noted: compound 10.0 µM; ATP 0.3 µM.
The next experiment addresses CDK2 CCNA2 (human) (UniProt P24941+P20248). To be noted: compound 10.0 µM; ATP 0.3 µM.
The next experiment addresses CDK4 CCND1 (human) (UniProt P11802+P24385). To be noted: compound 10.0 µM; ATP 3 µM.
Another experiment addresses CSNK2A1 (human) (UniProt P68400). To be noted: compound 10.0 µM; ATP 0.1 µM.
The target in the next experiment is EGFR (human) (UniProt P00533). To be noted: compound 10.0 µM; ATP 0.3 µM.
A further experiment has as its target EPHB4 (human) (UniProt P54760). To be noted: compound 10.0 µM; ATP 1 µM.
In a further experiment the target is ERBB2 (human) (UniProt P04626). To be noted: compound 10.0 µM; ATP 1 µM.
In the next experiment the target is IGF1R (human) (UniProt P08069). To be noted: compound 10.0 µM; ATP 1 µM.
For another experiment, the target named is KDR (human) (UniProt P35968). To be noted: compound 10.0 µM; ATP 1 µM.
Another experiment concerns the target MAP3K8 (human) (UniProt P41279). To be noted: compound 10.0 µM; ATP 3 µM.
A further experiment has as its target MAPK10 (human) (UniProt P53779). To be noted: compound 10.0 µM; ATP 0.3 µM.
A further experiment concerns the target MAPK14 (human) (UniProt Q16539). To be noted: compound 10.0 µM; ATP 1 µM.
The next experiment deals with MET (human) (UniProt P08581). To be noted: compound 10.0 µM; ATP 0.3 µM.
MET (human), sequence (P08581 whole entry, looked up): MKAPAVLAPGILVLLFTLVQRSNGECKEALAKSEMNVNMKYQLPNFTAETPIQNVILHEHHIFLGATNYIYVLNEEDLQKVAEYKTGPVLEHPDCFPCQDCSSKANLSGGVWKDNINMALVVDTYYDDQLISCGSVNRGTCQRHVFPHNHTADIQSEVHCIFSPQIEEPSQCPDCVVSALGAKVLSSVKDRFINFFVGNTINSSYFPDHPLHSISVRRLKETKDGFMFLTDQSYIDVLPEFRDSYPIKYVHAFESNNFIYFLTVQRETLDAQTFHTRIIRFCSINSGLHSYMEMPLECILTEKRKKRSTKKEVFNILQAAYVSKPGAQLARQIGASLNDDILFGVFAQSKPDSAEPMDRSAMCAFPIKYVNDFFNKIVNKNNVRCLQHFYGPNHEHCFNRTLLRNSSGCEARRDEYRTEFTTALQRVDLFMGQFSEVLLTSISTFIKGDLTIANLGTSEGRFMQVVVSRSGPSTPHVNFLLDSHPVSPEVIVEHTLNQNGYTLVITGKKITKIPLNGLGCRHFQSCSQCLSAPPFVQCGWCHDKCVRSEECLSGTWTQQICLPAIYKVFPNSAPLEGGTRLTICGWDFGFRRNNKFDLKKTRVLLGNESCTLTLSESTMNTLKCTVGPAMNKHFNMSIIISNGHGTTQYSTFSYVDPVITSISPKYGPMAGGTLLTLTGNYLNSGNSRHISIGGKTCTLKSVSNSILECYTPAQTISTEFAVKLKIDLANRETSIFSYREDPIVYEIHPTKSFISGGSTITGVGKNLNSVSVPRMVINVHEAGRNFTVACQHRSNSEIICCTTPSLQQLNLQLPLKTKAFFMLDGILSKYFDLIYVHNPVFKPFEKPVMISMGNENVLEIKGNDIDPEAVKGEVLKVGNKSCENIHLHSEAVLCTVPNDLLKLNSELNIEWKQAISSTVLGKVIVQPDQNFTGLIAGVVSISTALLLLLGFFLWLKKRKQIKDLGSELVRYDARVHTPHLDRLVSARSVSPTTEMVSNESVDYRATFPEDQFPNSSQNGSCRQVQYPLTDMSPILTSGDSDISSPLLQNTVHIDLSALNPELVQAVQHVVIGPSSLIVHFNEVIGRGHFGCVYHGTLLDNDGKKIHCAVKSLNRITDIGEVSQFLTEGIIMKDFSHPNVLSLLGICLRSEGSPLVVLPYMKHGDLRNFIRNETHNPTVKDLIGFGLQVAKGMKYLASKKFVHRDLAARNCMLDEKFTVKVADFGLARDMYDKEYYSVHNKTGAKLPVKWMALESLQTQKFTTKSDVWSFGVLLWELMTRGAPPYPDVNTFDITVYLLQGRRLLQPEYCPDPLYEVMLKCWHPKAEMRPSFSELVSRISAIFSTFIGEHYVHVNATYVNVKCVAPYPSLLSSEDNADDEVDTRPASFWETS
The next experiment addresses NUAK1 (human) (UniProt O60285). To be noted: compound 10.0 µM; ATP 1 µM.
In a further experiment the target is PDGFRB (human) (UniProt P09619). To be noted: compound 10.0 µM; ATP 0.3 µM.
The target of the next experiment is PLK1 (human) (UniProt P53350). To be noted: compound 10.0 µM; ATP 1 µM.
In another experiment the target is PLK4 (human) (UniProt O00444). To be noted: compound 10.0 µM; ATP 0.3 µM.
PLK4 (human), sequence (O00444 whole entry, looked up): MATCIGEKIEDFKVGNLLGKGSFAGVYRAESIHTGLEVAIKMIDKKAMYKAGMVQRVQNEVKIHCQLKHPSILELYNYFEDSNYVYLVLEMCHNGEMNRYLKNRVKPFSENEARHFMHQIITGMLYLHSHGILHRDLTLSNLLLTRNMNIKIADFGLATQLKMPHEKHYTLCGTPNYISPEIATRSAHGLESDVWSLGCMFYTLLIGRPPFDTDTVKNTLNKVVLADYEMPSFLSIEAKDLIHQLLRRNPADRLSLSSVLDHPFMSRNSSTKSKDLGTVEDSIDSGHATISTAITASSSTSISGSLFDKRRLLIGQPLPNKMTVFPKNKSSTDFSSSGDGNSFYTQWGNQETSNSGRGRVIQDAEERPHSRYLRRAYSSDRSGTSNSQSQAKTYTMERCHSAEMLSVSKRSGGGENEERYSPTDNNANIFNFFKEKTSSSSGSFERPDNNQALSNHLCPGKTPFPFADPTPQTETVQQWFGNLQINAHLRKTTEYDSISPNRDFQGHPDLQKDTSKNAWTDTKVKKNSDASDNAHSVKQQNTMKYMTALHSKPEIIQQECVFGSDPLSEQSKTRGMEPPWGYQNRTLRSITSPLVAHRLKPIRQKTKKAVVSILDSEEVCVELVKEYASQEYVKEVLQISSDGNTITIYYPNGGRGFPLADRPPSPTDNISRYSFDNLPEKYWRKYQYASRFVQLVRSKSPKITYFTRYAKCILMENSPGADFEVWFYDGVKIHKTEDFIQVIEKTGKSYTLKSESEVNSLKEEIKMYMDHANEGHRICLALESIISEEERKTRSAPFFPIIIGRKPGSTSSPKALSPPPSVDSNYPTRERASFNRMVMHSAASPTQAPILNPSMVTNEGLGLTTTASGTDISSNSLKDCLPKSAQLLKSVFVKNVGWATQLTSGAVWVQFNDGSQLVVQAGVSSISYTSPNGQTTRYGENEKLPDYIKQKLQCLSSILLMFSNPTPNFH
A further experiment has as its target PTK2 (human) (UniProt Q05397). To be noted: compound 10.0 µM; ATP 1 µM.
Another experiment addresses SRC (human) (UniProt P12931). To be noted: compound 10.0 µM; ATP 0.3 µM.
In the next experiment the target is TEK (human) (UniProt Q02763). To be noted: compound 10.0 µM; ATP 1 µM.

NUAK1 (human), sequence (O60285 whole entry, looked up): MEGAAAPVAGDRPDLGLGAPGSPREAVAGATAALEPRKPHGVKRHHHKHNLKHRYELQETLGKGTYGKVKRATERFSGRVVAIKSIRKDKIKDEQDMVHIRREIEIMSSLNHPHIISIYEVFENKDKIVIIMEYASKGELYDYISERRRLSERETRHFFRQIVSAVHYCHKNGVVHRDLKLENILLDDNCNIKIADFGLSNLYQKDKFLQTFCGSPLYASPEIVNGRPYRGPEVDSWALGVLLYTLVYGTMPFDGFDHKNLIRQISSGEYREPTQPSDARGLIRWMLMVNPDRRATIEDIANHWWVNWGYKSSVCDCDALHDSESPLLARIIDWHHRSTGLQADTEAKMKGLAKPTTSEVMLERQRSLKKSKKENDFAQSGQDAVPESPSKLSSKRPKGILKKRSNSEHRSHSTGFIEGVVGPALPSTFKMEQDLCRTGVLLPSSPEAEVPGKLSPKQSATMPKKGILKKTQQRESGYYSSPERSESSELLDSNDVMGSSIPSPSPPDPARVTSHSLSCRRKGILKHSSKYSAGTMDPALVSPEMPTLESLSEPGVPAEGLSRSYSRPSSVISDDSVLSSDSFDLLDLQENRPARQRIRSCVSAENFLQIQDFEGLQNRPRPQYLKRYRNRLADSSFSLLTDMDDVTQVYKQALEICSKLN
PTK2 (human), sequence (Q05397 whole entry, looked up): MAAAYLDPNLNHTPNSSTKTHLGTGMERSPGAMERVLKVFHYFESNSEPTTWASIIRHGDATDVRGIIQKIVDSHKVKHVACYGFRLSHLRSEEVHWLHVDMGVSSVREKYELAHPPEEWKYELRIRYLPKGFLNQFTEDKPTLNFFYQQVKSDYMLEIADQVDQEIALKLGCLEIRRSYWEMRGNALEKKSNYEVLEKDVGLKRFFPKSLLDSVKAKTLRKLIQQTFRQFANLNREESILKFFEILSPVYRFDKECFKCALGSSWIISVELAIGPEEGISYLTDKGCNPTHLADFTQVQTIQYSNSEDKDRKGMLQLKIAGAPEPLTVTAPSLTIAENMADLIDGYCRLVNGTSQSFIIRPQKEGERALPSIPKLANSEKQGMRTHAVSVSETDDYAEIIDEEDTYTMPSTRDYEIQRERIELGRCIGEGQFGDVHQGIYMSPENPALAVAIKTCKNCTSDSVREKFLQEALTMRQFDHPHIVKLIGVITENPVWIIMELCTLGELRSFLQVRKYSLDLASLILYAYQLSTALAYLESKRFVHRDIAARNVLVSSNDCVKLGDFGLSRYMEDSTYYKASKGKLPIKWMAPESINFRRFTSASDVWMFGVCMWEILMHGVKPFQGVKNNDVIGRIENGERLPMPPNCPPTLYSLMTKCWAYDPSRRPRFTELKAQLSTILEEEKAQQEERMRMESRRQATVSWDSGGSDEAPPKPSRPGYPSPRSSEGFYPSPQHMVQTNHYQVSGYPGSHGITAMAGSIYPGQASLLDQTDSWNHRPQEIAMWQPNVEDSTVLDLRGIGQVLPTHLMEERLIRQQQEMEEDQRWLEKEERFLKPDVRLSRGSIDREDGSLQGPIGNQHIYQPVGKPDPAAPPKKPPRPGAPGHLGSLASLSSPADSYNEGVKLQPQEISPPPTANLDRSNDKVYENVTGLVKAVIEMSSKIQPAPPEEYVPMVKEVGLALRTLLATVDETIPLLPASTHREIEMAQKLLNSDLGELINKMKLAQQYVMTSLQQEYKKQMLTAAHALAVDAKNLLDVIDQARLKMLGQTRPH
MAP3K8 (human), sequence (P41279 whole entry, looked up): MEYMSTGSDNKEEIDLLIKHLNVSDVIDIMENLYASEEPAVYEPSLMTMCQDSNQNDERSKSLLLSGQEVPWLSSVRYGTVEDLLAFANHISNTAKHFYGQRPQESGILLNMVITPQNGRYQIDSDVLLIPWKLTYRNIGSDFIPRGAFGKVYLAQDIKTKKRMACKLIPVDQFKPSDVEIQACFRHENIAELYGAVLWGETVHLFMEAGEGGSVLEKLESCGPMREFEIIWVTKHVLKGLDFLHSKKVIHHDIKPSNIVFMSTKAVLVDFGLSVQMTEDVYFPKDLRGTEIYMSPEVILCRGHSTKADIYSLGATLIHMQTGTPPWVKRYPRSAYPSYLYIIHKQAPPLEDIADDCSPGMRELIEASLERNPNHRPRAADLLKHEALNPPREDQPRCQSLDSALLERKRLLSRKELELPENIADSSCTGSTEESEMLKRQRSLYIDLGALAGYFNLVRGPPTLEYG
MAPK10 (human), sequence (P53779 whole entry, looked up): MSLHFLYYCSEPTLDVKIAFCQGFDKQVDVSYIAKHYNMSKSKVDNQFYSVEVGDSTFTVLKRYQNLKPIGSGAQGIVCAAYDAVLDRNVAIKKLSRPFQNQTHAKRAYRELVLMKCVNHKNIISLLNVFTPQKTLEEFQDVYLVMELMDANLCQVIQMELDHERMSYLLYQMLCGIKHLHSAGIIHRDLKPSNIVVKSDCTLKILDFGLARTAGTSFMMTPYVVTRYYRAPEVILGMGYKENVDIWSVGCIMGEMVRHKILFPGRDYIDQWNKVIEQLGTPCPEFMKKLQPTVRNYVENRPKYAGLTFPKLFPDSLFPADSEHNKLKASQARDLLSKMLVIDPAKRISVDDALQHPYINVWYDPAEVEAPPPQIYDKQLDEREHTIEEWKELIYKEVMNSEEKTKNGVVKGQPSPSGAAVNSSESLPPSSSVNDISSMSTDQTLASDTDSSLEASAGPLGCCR

With `Fc1ccc(-c2[nH]c(/C=C/c3ccccc3)nc2-c2ccncc2)cc1`, the residual activity at AKT1 (human) worked out at 75%; at AURKA (human), 38%; at AURKB (human), 32%; on AXL (human) it was 61%; at CDK2 CCNA2 (human) it was 32%; on CDK4 CCND1 (human) it was 36%. Further, the residual activity at CSNK2A1 (human) was found to be 73%; on EGFR (human), 2%; on EPHB4 (human), 21%; on ERBB2 (human), 3%; at IGF1R (human), 16%; on KDR (human) it was 17%. For the same compound, the residual activity stood at 35% on MAP3K8 (human); 11% at MAPK10 (human); 0% at MAPK14 (human); 25% on MET (human); 45% on NUAK1 (human); 34% at PDGFRB (human). For the same compound, the residual activity at PLK1 (human) amounted to 39%; on PLK4 (human), 5%; on PTK2 (human), 82%; at SRC (human), 8%; at TEK (human), 6%.

For `CSc1nc(-c2ccnc(NC(=O)C3CCCC3)c2)c(-c2ccc(F)cc2)n1C`, the residual activity was 100% on AKT1 (human); 72% on AURKA (human); 92% on AURKB (human); 62% at AXL (human); 88% on CDK2 CCNA2 (human); 105% at CDK4 CCND1 (human). Besides, the residual activity was 91% at CSNK2A1 (human); 30% on EGFR (human); 39% at EPHB4 (human); 48% at ERBB2 (human); 53% at IGF1R (human); 49% on KDR (human). The residual activity worked out at 88% at MAP3K8 (human); 16% on MAPK10 (human); 3% at MAPK14 (human); 91% at MET (human); 100% on NUAK1 (human); 65% on PDGFRB (human). In addition, the residual activity at PLK1 (human) came to 107%; on PLK4 (human), 46%; on PTK2 (human), 80%; on SRC (human), 43%; on TEK (human), 35%.

Consider `Fc1ccc(-c2[nH]c(SCCCc3ccccc3)nc2-c2ccncc2)cc1`, for which the residual activity at AKT1 (human) came to 98%; on AURKA (human), 88%; on AURKB (human), 88%; at AXL (human), 71%; at CDK2 CCNA2 (human) it was 54%; at CDK4 CCND1 (human), 99%. The residual activity is 87% on CSNK2A1 (human); 31% on EGFR (human); 55% at EPHB4 (human); 30% at ERBB2 (human); 49% on IGF1R (human); 52% on KDR (human). Moreover, the residual activity on MAP3K8 (human) was 85%; on MAPK10 (human), 56%; at MAPK14 (human), 10%; at MET (human), 81%; at NUAK1 (human), 89%; at PDGFRB (human), 80%. Further, the residual activity on PLK1 (human) was 92%; on PLK4 (human) it was 74%; at PTK2 (human), 99%; on SRC (human), 33%; at TEK (human), 65%.

For the compound `CSc1ccc(CSc2nc(-c3ccncc3)c(-c3ccc(Br)cc3)[nH]2)cc1`, the residual activity at AKT1 (human) is 147%; on AURKA (human), 78%; on AURKB (human) it was 63%; on AXL (human), 85%; at CDK2 CCNA2 (human), 64%; at CDK4 CCND1 (human), 87%. For the same compound, the residual activity at CSNK2A1 (human) turned out to be 71%; at EGFR (human) it was 49%; at EPHB4 (human), 56%; on ERBB2 (human), 31%; on IGF1R (human), 33%; on KDR (human) it was 51%. Further, the residual activity came out at 79% on MAP3K8 (human); 64% at MAPK10 (human); 11% at MAPK14 (human); 54% at MET (human); 94% on NUAK1 (human); 54% at PDGFRB (human). The residual activity at PLK1 (human) came out at 94%; on PLK4 (human), 33%; at PTK2 (human) it was 122%; at SRC (human), 30%; at TEK (human), 21%.

For `On1c(/C=C/c2ccccc2)nc(-c2ccncc2)c1-c1ccc(F)cc1`, the residual activity at AKT1 (human) was 76%; at AURKA (human) it was 18%; on AURKB (human) it was 18%; on AXL (human), 42%; at CDK2 CCNA2 (human) it was 20%; on CDK4 CCND1 (human), 21%. Further, the residual activity worked out at 68% on CSNK2A1 (human); 1% at EGFR (human); 19% on EPHB4 (human); 4% on ERBB2 (human); 13% at IGF1R (human); 9% at KDR (human). The residual activity on MAP3K8 (human) was 48%; on MAPK10 (human), 9%; on MAPK14 (human), 3%; at MET (human), 23%; at NUAK1 (human), 51%; on PDGFRB (human) it was 31%. In addition, the residual activity is 51% on PLK1 (human); 7% at PLK4 (human); 65% at PTK2 (human); 5% on SRC (human); 5% at TEK (human).

With `Oc1ccccc1CSc1nc(-c2ccncc2)c(-c2ccc(F)cc2)[nH]1`, the residual activity was determined as 137% at AKT1 (human); 74% on AURKA (human); 74% at AURKB (human); 96% at AXL (human); 54% at CDK2 CCNA2 (human); 79% at CDK4 CCND1 (human). Further, the residual activity on CSNK2A1 (human) was 90%; on EGFR (human), 11%; at EPHB4 (human), 44%; on ERBB2 (human), 11%; at IGF1R (human), 49%; at KDR (human) it was 42%. The residual activity on MAP3K8 (human) was 91%; at MAPK10 (human) it was 46%; at MAPK14 (human) it was 6%; at MET (human), 71%; on NUAK1 (human), 108%; on PDGFRB (human), 64%. The residual activity came to 104% on PLK1 (human); 38% on PLK4 (human); 128% at PTK2 (human); 32% at SRC (human); 32% on TEK (human).

As a reminder, the residual activity is the signal under treatment as a percentage of the control signal.

The record behind these values is the kinase profiling compilation of Christmann-Franck et al. (2016).
